Structures can show the parent of a compound that is named as a salt.
| SMILES | melting point |
| --- | --- |
| Cc1ccc2c(c1)Nc1ccccc1N=C2N1CCN(C)CC1 [Example 574, 3-Methyl-11-(4-methyl-piperazin-1-yl)-3-methyl-5H-dibenzo[b,e][1,4]diazepine] | 84 °C (dec.) |
| Cc1cc2c(s1)Nc1ccccc1N=C2N1CCN(C)[C@@H](CCc2ccc(Cl)cc2)C1 [Example 390, 10-((S)-3-[2-(4-Chloro-phenyl)-ethyl]-4-methyl-piperazin-1-yl)-2-methyl-4H-3-thia-4,9-diaza-benzo[f]azulene] | 79 °C (dec.) |
| COc1cccc(CC[C@H]2CN(C3=Nc4ccccc4Nc4sc(C)cc43)CCN2C)c1 (as salt: hydrochloride) [Example 186, 10-((S)-3-(2-(3-Methoxy-phenyl)-ethyl)-4-methyl-piperazin-1-yl)-2-methyl-4H-3-thia-4.9-diaza-benzo[f]azulene dihydrochloride] | 200 °C (dec.) |
| Cc1cc2c(s1)Nc1ccccc1N=C2N1CCN[C@@H](CCc2cccnc2)C1 (as salt: hydrochloride) (hydrate or solvate) | 226 to 229 °C (dec.) |
| Cc1nc2c(s1)Nc1ccccc1N=C2N1CCN[C@@H](CCc2ccccc2)C1 (as salt: hydrochloride) (hydrate or solvate) [Example 460, (S)-2-Methyl-10-(3-phenethyl-piperazin-1-yl)-4H-3-thia-1,4,9-triaza-benzo[f]azulene dihydrochloride hemihydrate] | 230 °C |
| Cc1ccc2c(c1)C(N1CCN(C)CC1)=Nc1ccccc1N2 [Example 579] | 170 to 177 °C (dec.) |
| Cc1nc2c(s1)Nc1ccccc1N=C2N1CCN(C)[C@@H](CCc2ccccc2)C1 (as salt: hydrochloride) (hydrate or solvate) [Example 461, (S)-2-Methyl-10-(4-methyl-3-phenethyl-piperazin-1-yl)-4H-3-thia-1,4,9-triaza-benzo[f]azulene dihydrochloride hemihydrate] | 220 °C |
| Cc1cc2c(s1)Nc1ccccc1N=C2N1CCN(C)[C@@H](CCc2ccncc2)C1 (as salt: hydrochloride) (hydrate or solvate) | 214 to 217 °C (dec.) |
| Cc1ccc2c(c1)C(N1CCN[C@@H](CCc3ccccc3)C1)=Nc1ccccc1N2 [Example 580, 2-Methyl-11-[(S)-3-phenethyl-piperazin-1-yl]-5H-dibenzo[b,e][1,4]diazepine] | 67 °C (dec.) |
| COc1cccc(CC[C@H]2CN(C3=Nc4ccccc4Nc4sc(C)cc43)CCN2)c1 (as salt: hydrochloride) [Example 180, 10-((S)-3-(2-(3-Methoxy-phenyl)-ethyl)-piperazin-1-yl)-2-methyl-4H-3-thia-4,9-diaza-benzo[f]azulene dihydrochloride] | 201 °C (dec.) |
| Cc1cc2c(s1)Nc1ccccc1N=C2N1CCN[C@@H](CCc2cccc(F)c2)C1 (as salt: hydrochloride) [Example 177, 10-((S)-3-(2-(3-Fluoro-phenyl)-ethyl)-piperazin-1-yl))-2-methyl-4H-3-thia-4,9-diaza-benzo[f]azulene dihydrochloride] | 211 °C (dec.) |
| COc1ccc(CC[C@H]2CN(C3=Nc4cc(F)ccc4Nc4sc(C)cc43)CCN2C)cc1.Cl (stereo in doubt) | 180 to 182 °C |
| CC(C)c1nc2c(s1)Nc1ccccc1N=C2N1CCN(C)[C@@H](CCc2cccc(F)c2)C1 (as salt: hydrochloride) | 180 °C |
| COc1ccc(CC[C@H]2CN(C3=Nc4ccccc4Nc4sc(C)cc43)CCN2)cc1 (as salt: hydrochloride) [Example 179, 10-((S)-3-(2-(4-methoxy-phenyl)-ethyl)-piperazin-1-yl)-2-methyl-4H-3-thia-4,9-diaza-benzo[f]azulene dihydrochloride] | 213 °C (dec.) |
| Cc1cc2c(s1)Nc1ccccc1N=C2N1CCN[C@@H](CCc2ccc(C(F)(F)F)cc2)C1 [Example 393, 10-((S)-3-[2-(4-Trifluoromethyl-phenyl)-ethyl]-piperazin-1-yl)-2-methyl-4H-3-thia-4,9-diaza-benzo[f]azulene] | 78 °C (dec.) |
| CC(C)c1nc2c(s1)Nc1ccccc1N=C2N1CCN(C)[C@@H](CCc2ccccc2)C1 (as salt: hydrochloride) | 210 °C |
| Cc1nc2c(s1)Nc1ccccc1N=C2N1CCN(C)[C@@H](CCc2ccc(F)cc2)C1 (as salt: hydrochloride) | 230 °C |
| Cc1ccc2c(c1)Nc1ccccc1N=C2N1CCN(C)[C@@H](CCc2cccc(F)c2)C1 [Example 578, 11-{(S)-3-[2-(3-Fluoro-phenyl)-ethyl]-4-methyl-piperazin-1-yl}-3-methyl-5H-dibenzo[b,e][1,4]diazepine] | 63 °C (dec.) |
| Cc1cc2c(s1)Nc1ccccc1N=C2N1CCN[C@@H](CCc2ccc(F)cc2F)C1 [Example 399, 10-((S)-3-[2-(2,4-Difluoro-phenyl)-ethyl]-piperazin-1-yl)-2-methyl-4H-3-thia-4,9-diaza-benzo[f]azulene] | 69 °C (dec.) |
| Cc1cc2c(s1)Nc1ccccc1N=C2N1CCN(C)[C@@H](CCc2ccc3ccccc3c2)C1 (as salt: hydrochloride) | 209 °C (dec.) |

| SMILES | melting point |
| --- | --- |
| Cc1cc2c(s1)Nc1ccccc1N=C2N1CCN[C@@H](CCc2ccccc2Cl)C1 [Example 389, 10-((S)-3-[2-(2-Chloro-phenyl)-ethyl]-piperazin-l-yl)-2-methyl-4H-3-thia-4,9-diaza-benzo[f]azulene] | 72 °C (dec.) |
| Cc1cc2c(s1)Nc1ccccc1N=C2N1CCN(C)[C@@H](CCc2ccc(C(F)(F)F)cc2)C1 [Example 396, 10-((S)-3-[2-(4-Trifluoromethyl-phenyl)-ethyl]-4-methyl-piperazin-1-yl)-2-methyl-4H-3-thia-4,9-diaza-benzo[f]azulene] | 72 °C (dec.) |
| CC(C)c1ccc2c(c1)C(N1CCN(C)[C@@H](CCc3cccc(F)c3)C1)=Nc1ccccc1N2 (as salt: hydrochloride) | 227 °C |
| Cc1nc2c(s1)Nc1ccccc1N=C2N1CCN(C)[C@@H](Cc2ccccc2)C1 (as salt: hydrochloride) | 240 °C |
| Cc1ccc2c(c1)Nc1ccccc1N=C2N1CCN(C)[C@@H](CCc2ccccc2)C1 [Example 576, 3-Methyl-11-[4-methyl-(S)-3-phenethyl-piperazin-1-yl]-5H-dibenzo[b,e][1,4]diazepine] | 65 °C (dec.) |
| CC(C)n1nc2c(n1)C(N1CCN[C@@H](CCc3ccccc3)C1)=Nc1ccccc1N2 (as salt: hydrochloride) (hydrate or solvate) [Example 594, (S)-2-Isopropyl-10-(3-phenethyl-piperazin-1-yl)-2,4-dihydro-1,2,3,4.9-pentaaza-benzo[f]azulene dihydrochloride hemihydrate] | 210 °C |
| Clc1ccc2c(c1)N=C(N1CCN[C@@H](Cc3ccccc3)C1)c1ccccc1N2 [Example 585, 11-(3-(S)-Benzyl-piperazin-1-yl)-8-chloro-5H-dibenzo[b,e][1,4]diazepine] | 79 to 92 °C |
| Cc1cc2c(s1)Nc1ccccc1N=C2N1CCN[C@@H](CCc2ccccc2F)C1 (as salt: hydrochloride) [Example 178, 10-((S)-3-(2-(2-Fluoro-phenyl)-ethyl)-piperazin-1-yl)-2-methyl-4H-3-thia-4,9-diaza-benzo[f]azulene dihydrochloride] | 209 °C (dec.) |
| Cc1cc2c(s1)Nc1ccccc1N=C2N1CCN(C)[C@@H](CCc2ccccc2)C1.Cl | 225 °C |
| CC(C)c1nc2c(s1)Nc1ccccc1N=C2N1CCN(C)[C@@H](CCc2ccc(F)cc2)C1 (as salt: hydrochloride) [Example 481, (S)-10-{3-[2-(4-Fluoro-phenyl)-ethyl]-4-methyl-piperazin-1-yl}-2-isopropyl-4H-3-thia-1,4,9-triaza-benzo[f]azulene dihydrochloride] | 228 °C |
| Cc1cc2c(s1)Nc1ccccc1N=C2N1CCN(C)[C@@H](CCc2cccc(F)c2)C1 (as salt: hydrochloride) [Example 183, 10-((S)-3-(2-(3-Fluoro-phenyl)-ethyl)-4-methyl-piperazin-1-yl)-2-methyl-4H-3-thia-4,9-diaza-benzo[f]azulene dihydrochloride] | 225 °C (dec.) |
| Cc1cc2c(s1)Nc1ccccc1N=C2N1CCN[C@@H](CCc2ccc(Cl)cc2)C1 [Example 388, 10-((S)-3-[2-(4-Chloro-phenyl)-ethyl]-piperazin-1-yl)-2-methyl-4H-3-thia-4,9-diaza-benzo[f]azulene] | 91 °C (dec.) |
| Cc1cc2c(s1)Nc1ccccc1N=C2N1CCN(C)[C@@H](CCc2ccoc2)C1.Cl.Cl | 198 °C (dec.) |
| Cc1nc2c(s1)Nc1ccccc1N=C2N1CCN[C@@H](Cc2ccccc2)C1 [Example 462] | 250 to 252 °C |
| COc1ccccc1CC[C@H]1CN(C2=Nc3ccccc3Nc3sc(C)cc32)CCN1 (as salt: hydrochloride) [Example 181, 10-((S)-3-(2-(2-Methoxy-phenyl)-ethyl)-piperazin-1-yl)-2-methyl-4H-3-thia-4,9-diaza-benzo[f]azulene dihydrochloride] | 202 °C (dec.) |
| CN1CCN(C2=Nc3ccccc3Nc3ccc(C(F)(F)F)cc32)CC1 [Example 606, 11-(4-Methyl-piperazin-1-yl)-2-trifluoromethyl-5H-dibenzo[b,e][1,4]diazepine] | 68 to 72 °C |
| Cc1cc2c(s1)Nc1ccccc1N=C2N1CCN(C)[C@@H](CCc2ccccc2F)C1 (as salt: hydrochloride) [Example 184, 10-((S)-3-(2-(2-Fluoro-phenyl)-ethyl)-4-methyl-piperazin-1-yl)-2-methyl-4H-3-thia-4,9-diaza-benzo[f]azulene dihydrochloride] | 203 °C (dec.) |
| Cc1cc2c(s1)Nc1ccccc1N=C2N1CCN(C)[C@@H](CCc2ccc(F)cc2)C1 (as salt: hydrochloride) [Example 182, 10-((S)-3-(2-(4-Fluoro-phenyl)-ethyl]-4-methyl-piperazin-1-yl)-2-methyl-4H-3-thia-4,9-diaza-benzo[f]azulene dihydrochloride] | 253 °C (dec.) |
| Cc1ccc2c(c1)Nc1ccccc1N=C2N1CCN[C@@H](CCc2ccccc2)C1 [Example 575, 3-Methyl-11-[(S)-3-phenethyl-piperazin-1-yl]-5H-dibenzo[b,e][1,4]diazepine] | 64 to 80 °C |
